In patent US5498628A, “Naphthamide derivatives” (Institut National de la Sante et de la Recherche Medicale, priority 1991, dated 1996):
pKi: −log10 of the molar value. Structures can show the parent of a compound that is named as a salt.

Experiments:
[1] = target: HUMAN D3 DOPAMINERGIC RECEPTOR (Homo sapiens, UniProt P35462); experiment: biochemical; details: read-out: Ki VALUE (inhibition constant for binding of [^125 I]iodosulpiride)
Experimental: The inhibition constants for the binding of [^125 I]iodosulpiride to the D3 receptor were measured as described in the French Patent Application filed by INSERM on 6th Nov. 1990 under No. 90/13731.

[2] = tested on: dopamine receptors; experiment: Antagonism of apomorphine-induced rearing in mice (dopamine receptor blockade in vivo); details: i.p.
Experimental: (§1) The capacity to bring about a blockade of the dopamine receptors in vivo was evaluated for some of the compounds according to the invention. The tests used were the antagonism of stereotyped sniffing and rearing induced by apomorphine in mice. These tests have been described by Protais et al. (Psychopharmacology, 1976, 50:1-6) and by Vasse et al. (Naunyn Schmiedeberg's Arch. Pharmacol., 1985, 329:108-116).

[3] = tested on: dopamine receptors; experiment: Antagonism of apomorphine-induced stereotyped sniffing in mice (dopamine receptor blockade in vivo); details: Mus musculus, ip, read-out: ID50 for the antagonism of sniffing
Experimental: as §1

UniProt P35462, sequence (P35462 whole entry): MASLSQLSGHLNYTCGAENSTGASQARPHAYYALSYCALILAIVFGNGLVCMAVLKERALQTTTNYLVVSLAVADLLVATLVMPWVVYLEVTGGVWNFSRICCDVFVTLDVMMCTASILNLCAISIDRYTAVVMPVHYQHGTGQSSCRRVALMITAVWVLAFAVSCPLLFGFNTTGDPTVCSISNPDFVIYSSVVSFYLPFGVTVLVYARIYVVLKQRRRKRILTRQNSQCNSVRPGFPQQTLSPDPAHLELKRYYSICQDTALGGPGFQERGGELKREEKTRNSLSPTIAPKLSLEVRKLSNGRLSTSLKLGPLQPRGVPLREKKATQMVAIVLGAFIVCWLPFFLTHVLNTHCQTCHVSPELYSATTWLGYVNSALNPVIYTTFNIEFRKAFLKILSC

Structure (SMILES)	pKi [1]	also measured
CCCCN1CCCC1CNC(=O)c1cc(Br)c2ccccc2c1OC (stereo not drawn) [Example 1, N-[(N-1-butyl-2-pyrrolidinyl)methyl]-1-methoxy-4-bromo-2-naphthamide hydrochloride]	9.62	–
C=CCN1CCCC1CNC(=O)c1cc(C#N)c2ccccc2c1OC (stereo not drawn) [Example 2, N-[(N-allyl-2-pyrrolidinyl)methyl]-1-methoxy-4-cyano-2-naphthamide]	9.29	–
CCN1CCCC1CNC(=O)c1ccc2ccccc2c1OC (stereo not drawn) [Example 4, N-[(N-Ethyl-2-pyrrolidinyl)methyl]-1-methoxy-2-naphthamide]	7.46	–
CCN1CCCC1CNC(=O)c1cc(Cl)c2ccccc2c1OC (stereo not drawn) [Example 8, 4-Chloro-N-[(N-ethyl-2-pyrrolidinyl)methyl]-1-methoxy-2-naphthamide hydrochloride]	9.59	ED50 ([2]; Mus musculus, ip, apomorphine-induced rearing, read-out: ID50 for the antagonism of rearing): 0.16 mg/kg; crossing of the blood-brain barrier ([2]; inferred from ID50 values for rearing and sniffing): readily crosses the blood-brain barrier; ED50 [3]: 0.42 mg/kg

Continued, in another order:

pKi [1]	Structure (SMILES)	also measured
9.52	CCN1CCCC1CNC(=O)c1cc([N+](=O)[O-])c2ccccc2c1OC (stereo not drawn) [Example 6, 4-Nitro-N-[(N-ethyl-2-pyrrolidinyl)methyl]-1-methoxy-2-naphthamide]	–
7.04	COc1c(C(=O)NCC2CCCN2Cc2ccccc2)ccc2ccccc12 (stereo not drawn) [Example 11, N-[(N-Benzyl-2-pyrrolidinyl)methyl]-1-methoxy-2-naphthamide hydrochloride]	–
8.77	COc1c(C(=O)NCC2CCCN2Cc2ccccc2)cc([N+](=O)[O-])c2ccccc12 (stereo not drawn) [Example 12, 4-Nitro-N-[(N-benzyl-2-pyrrolidinyl)methyl]-1-methoxy-2-naphthamide]	–
8.33	COc1c(C(=O)NCC2CCCN2Cc2ccccc2)cc(Cl)c2ccccc12 (stereo not drawn) [Example 13, 4-Chloro-N-[(N-benzyl-2-pyrrolidinyl)methyl]-1-methoxy-2-naphthamide]	–
9.46	C=CCN1CCCC1CNC(=O)c1cc([N+](=O)[O-])c2ccccc2c1OC (stereo not drawn) [Example 17]	–
